Data published in the NIST ThermoML archive (doi:10.1016/j.jct.2007.05.005).

Assay: xn = mol fraction of the nth substance listed
Conditions: 101.3 kPa, Liquid; for speed of sound: Sing-around technique in a fixed-path interferometer

CCOC(C)(C)C [2-ethoxy-2-methylpropane] + Cc1ccccc1
Conditions	mass density, 288.15 K [kg/m3]	mass density, 298.15 K [kg/m3]	mass density, 323.15 K [kg/m3]	speed of sound, 288.15 K [m/s]	speed of sound, 298.15 K [m/s]	speed of sound, 323.15 K [m/s]
x1 = 0.052	864.001	854.662	831.025	1332.1	1288.3	1181.6
x1 = 0.108	855.965	846.56	822.744	1315.2	1271.3	1164
x1 = 0.217	840.966	831.445	807.297	1282.6	1238.1	1130.6
x1 = 0.301	829.662	820.051	795.645	1258.9	1214.7	1106.5
x1 = 0.41	815.355	805.638	780.903	1228	1183.6	1075
x1 = 0.505	803.55	793.739	768.747	1202.7	1158.1	1049.3
x1 = 0.615	789.864	779.951	754.631	1173.5	1129.1	1019.7
x1 = 0.701	779.62	769.63	744.088	1151.5	1107	997.51
x1 = 0.805	767.503	757.422	731.601	1125.3	1080.5	970.75
x1 = 0.897	757.112	746.951	720.871	1102.8	1058.2	948.16
x1 = 0.95	751.062	740.859	714.65	1089.8	1045	934.78
x1 = 1	745.656	735.357	709.007	1078.9	1033.2	922.48

CCOC(C)(C)C [2-ethoxy-2-methylpropane] + CC(C)(C)O
Conditions	mass density, 303.15 K [kg/m3]	mass density, 313.15 K [kg/m3]	mass density, 323.15 K [kg/m3]	speed of sound, 303.15 K [m/s]	speed of sound, 313.15 K [m/s]	speed of sound, 323.15 K [m/s]
x1 = 0.06	770.981	760.486	749.635	1085.9	1043.4	1001.6
x1 = 0.093	768.859	758.385	747.565	1079.5	1037.4	996.19
x1 = 0.2	762.345	751.936	741.141	1062.9	1021.9	980.83
x1 = 0.298	757.005	746.63	735.846	1050.7	1010.1	969.12
x1 = 0.386	752.738	742.309	731.52	1041.5	1000.3	959.27
x1 = 0.488	748.226	737.777	726.96	1033.5	992.26	950.9
x1 = 0.632	742.556	732.028	721.169	1024.7	982.68	940.83
x1 = 0.685	740.622	730.077	719.198	1022.1	979.93	937.72
x1 = 0.796	736.85	726.255	715.369	1017.9	975.09	932.37
x1 = 0.896	733.592	722.99	712.15	1014.9	971.48	928.25
x1 = 0.949	731.862	721.29	710.507	1013.4	969.31	925.71
x1 = 1	730.186	719.687	708.996	1010.2	965.87	922.08

CCOC(C)(C)C [2-ethoxy-2-methylpropane] + CCO
Conditions	mass density, 288.15 K [kg/m3]	mass density, 298.15 K [kg/m3]	mass density, 323.15 K [kg/m3]	speed of sound, 288.15 K [m/s]	speed of sound, 298.15 K [m/s]	speed of sound, 323.15 K [m/s]
x1 = 0.049	790.26	781.555	759.223	1171.4	1135.6	1048.6
x1 = 0.097	786.997	778.154	755.418	1165.8	1128.9	1038.1
x1 = 0.198	780.646	771.547	748.104	1150.9	1112.5	1018.3
x1 = 0.303	774.648	765.324	741.204	1137.4	1097.5	999.82
x1 = 0.395	770.061	760.556	735.962	1127.4	1086.4	986.27
x1 = 0.504	765.017	755.325	730.194	1116.6	1074.6	971.7
x1 = 0.606	760.667	750.815	725.266	1108.4	1065.5	959.88
x1 = 0.691	757.429	747.458	721.666	1101.4	1058	950.98
x1 = 0.802	753.45	743.339	717.148	1094	1049.8	941.56
x1 = 0.895	749.87	739.659	713.326	1087.8	1043	933.37
x1 = 0.935	748.296	738.056	711.669	1084.8	1039.8	929.43
x1 = 1	745.656	735.357	709.007	1078.9	1033.2	922.48

CCOC(C)(C)C [2-ethoxy-2-methylpropane] + c1ccccc1
Conditions	mass density, 288.15 K [kg/m3]	mass density, 298.15 K [kg/m3]	mass density, 323.15 K [kg/m3]	speed of sound, 288.15 K [m/s]	speed of sound, 298.15 K [m/s]	speed of sound, 323.15 K [m/s]
x1 = 0.049	874.335	863.764	837.01	1327.2	1280	1165.5
x1 = 0.102	864.201	853.699	827.068	1308.3	1261.4	1147.2
x1 = 0.204	846.222	835.811	809.343	1274.8	1228.3	1114.7
x1 = 0.299	830.929	820.575	794.184	1245.6	1199.4	1086.3
x1 = 0.393	816.969	806.647	780.301	1219.1	1173	1060
x1 = 0.494	802.925	792.628	766.309	1192.1	1146.5	1034.2
x1 = 0.589	790.686	780.408	754.084	1168.6	1123.6	1011.7
x1 = 0.696	777.916	767.647	741.314	1143.5	1099	988.29
x1 = 0.799	766.357	756.096	729.753	1120.3	1075.7	965.1
x1 = 0.906	755	744.747	718.393	1097.6	1053.3	942.92
x1 = 0.953	750.242	739.991	713.647	1087.8	1044	933.45
x1 = 1	745.656	735.357	709.007	1078.9	1033.2	922.48

CCOC(C)(C)C [2-ethoxy-2-methylpropane] + CCc1ccccc1
Conditions	mass density, 288.15 K [kg/m3]	mass density, 298.15 K [kg/m3]	mass density, 323.15 K [kg/m3]	speed of sound, 288.15 K [m/s]	speed of sound, 298.15 K [m/s]	speed of sound, 323.15 K [m/s]
x1 = 0.062	862.801	854.066	831.864	1341.6	1298.5	1195.2
x1 = 0.122	855.221	846.39	823.917	1324.4	1281	1177.2
x1 = 0.239	840.448	831.434	808.496	1291.1	1247.3	1142.5
x1 = 0.353	826.071	816.917	793.606	1258.9	1214.8	1109
x1 = 0.455	813.347	804.045	780.291	1230.1	1185.7	1079
x1 = 0.556	800.809	791.351	767.168	1201.7	1157.1	1049.8
x1 = 0.653	788.72	779.094	754.45	1174.2	1129.3	1021.4
x1 = 0.746	777.039	767.306	742.327	1148.3	1103.2	994.59
x1 = 0.834	765.895	756.026	730.658	1123.2	1077.9	968.81
x1 = 0.918	755.524	745.492	719.646	1099.7	1054	944.36
x1 = 0.959	750.111	740.037	714.068	1088	1042.2	932.2
x1 = 1	744.955	734.806	708.642	1076.4	1031	920.73

CCOC(C)(C)C [2-ethoxy-2-methylpropane] + CC(C)CC(C)(C)C
Conditions	mass density, 288.15 K [kg/m3]	mass density, 298.15 K [kg/m3]	mass density, 323.15 K [kg/m3]	speed of sound, 288.15 K [m/s]	speed of sound, 298.15 K [m/s]	speed of sound, 323.15 K [m/s]
x1 = 0.047	697.781	689.477	668.28	1121.2	1078.7	975.15
x1 = 0.1	699.904	691.5	670.054	1118.3	1075.5	971.5
x1 = 0.204	704.01	695.429	673.45	1111.9	1068.9	964.23
x1 = 0.305	708.284	699.51	677.1	1106.8	1063.8	958.38
x1 = 0.4	712.599	703.649	680.717	1101.7	1058.5	952.41
x1 = 0.508	717.689	708.525	685.059	1096.5	1053.1	946.33
x1 = 0.596	722.093	712.737	688.798	1092.5	1048.3	941.25
x1 = 0.699	727.55	717.974	693.436	1088.3	1043.8	935.64
x1 = 0.788	732.615	722.843	697.73	1084.9	1040.1	931
x1 = 0.902	739.579	729.56	703.808	1081.5	1036.6	927.2
x1 = 0.949	742.53	732.405	706.371	1080.5	1035.4	925.22
x1 = 1	745.656	735.357	709.007	1078.9	1033.2	922.48
